{"source": "paper PMC3669539", "about": "“Explant cultures of Rpe65^−/− mouse retina: a model to investigate cone opsin trafficking” (Molecular Vision, 2013)", "target": "T1, mouse UV cone opsin (Mus musculus, UniProt P51491)", "T1 construct": "gene Opn1sw; pMT-2 vector, COS-1 cell membranes; transducin from bovine retina as read-out", "T1 sequence (P51491 1-346)": "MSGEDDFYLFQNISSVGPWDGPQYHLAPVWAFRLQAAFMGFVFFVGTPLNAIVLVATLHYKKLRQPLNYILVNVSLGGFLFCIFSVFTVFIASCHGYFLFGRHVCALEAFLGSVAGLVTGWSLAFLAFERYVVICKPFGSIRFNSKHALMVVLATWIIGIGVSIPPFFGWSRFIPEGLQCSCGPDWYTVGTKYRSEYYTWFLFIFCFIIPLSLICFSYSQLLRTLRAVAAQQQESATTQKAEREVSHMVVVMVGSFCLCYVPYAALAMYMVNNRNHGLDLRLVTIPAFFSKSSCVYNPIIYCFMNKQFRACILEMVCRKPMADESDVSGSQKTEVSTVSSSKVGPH", "test": "transducin activation, radioactive GTPgammaS35 filter-binding assay", "assay_type": "biochemical", "settings": "agonist, 20 or 200 µM; COS-1 membranes, bovine transducin 2.5 µM, 3 µM GTPgammaS, pH 6.4, 50 mM MgCl2, dim red light", "data": [{"smiles": "CC1=C(/C=C/C(C)=C/C=C/C(C)=C/C(=O)O)C(C)(C)CCC1", "note": "[all-trans retinoic acid]", "values": [{"measurement": "transducin activation, radioactive GTPgammaS35 filter-binding assay", "result": "RA, on the other hand, did increase mouse UV-opsin activity significantly"}]}]}
